Measured values reported in PubChem BioAssay (NCI).
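Briefly, cells in 96-well plates were exposed to five compound concentrations for 48 h, and endpoints were estimated by linear interpolation. At the GI50, growth is halved. TGI marks complete inhibition of growth.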

Columns and labels:
Test in all cases: NCI anticancer screen, dose series, 48 h
MALME-3M melanoma = tested on: MALME-3M melanoma
HS 578T breast = tested on: HS 578T breast
MOLT-4 leukemia = tested on: MOLT-4 leukemia
OVCAR-4 ovarian = tested on: OVCAR-4 ovarian
TK-10 renal = tested on: TK-10 renal
UACC-62 melanoma = tested on: UACC-62 melanoma
NCI-H23 lung = tested on: NCI-H23 lung
HOP-62 NSCLC = tested on: HOP-62 NSCLC
ACHN renal = tested on: ACHN renal
SK-MEL-2 melanoma = tested on: SK-MEL-2 melanoma
M14 melanoma = tested on: M14 melanoma
MDA-N = tested on: MDA-N
SNB-19 CNS = tested on: SNB-19 CNS
NCI-H460 lung = tested on: NCI-H460 lung
SF-295 CNS = tested on: SF-295 CNS
PC-3 prostate = tested on: PC-3 prostate
MCF7 breast = tested on: MCF7 breast

Compound	TGI (MALME-3M melanoma) [µM]	TGI (HS 578T breast) [µM]	TGI (MOLT-4 leukemia) [µM]	TGI (OVCAR-4 ovarian) [µM]	TGI (TK-10 renal) [µM]	TGI (UACC-62 melanoma) [µM]	TGI (NCI-H23 lung) [µM]	TGI (HOP-62 NSCLC) [µM]	TGI (ACHN renal) [µM]	TGI (SK-MEL-2 melanoma) [µM]	TGI (M14 melanoma) [µM]	TGI (MDA-N) [µM]	TGI (SNB-19 CNS) [µM]	TGI (NCI-H460 lung) [µM]	TGI (SF-295 CNS) [µM]	TGI (PC-3 prostate) [µM]	TGI (MCF7 breast) [µM]	GI50 (UACC-62 melanoma) [µM]
CCN(CC)C(=S)SS(=O)(=O)c1ccccc1[N+](=O)[O-]	22.2	> 88.7	26	> 83.3	> 90.3	> 100	99	> 65.8	> 78.4	> 100	> 48.5	> 66.6	> 92.8	> 100	> 100	> 100		
CC(=O)OCC(OC(C)=O)C(OC(C)=O)C(OC(C)=O)C(/C=N\Nc1nc2ccccc2c(=O)[nH]1)=N/Nc1nc2ccccc2c(=O)[nH]1 (configuration not stated)	> 100	> 100	> 100			> 100	> 100	> 100	> 100	> 100	> 100	> 100	> 100	> 100	> 100	> 100	> 100	
N#CCCN(CCC#N)c1ccc(C(N=Nc2ccc(Cl)cc2)=Nc2ccc(F)cc2)cc1		> 100	> 100	> 100	> 100	> 100	> 100	> 100	> 100		> 100	> 100	> 100	> 100	> 100	> 100	> 100	
O=C1CN(c2ccc(Cl)cc2)C(=O)CN1NCNN1CC(=O)N(c2ccc(Cl)cc2)CC1=O	> 100	> 100	> 100	> 100	> 100	> 100	> 100	> 100	> 100		> 100	> 100	> 100	> 100	> 100	> 100	> 100	
O=C1[C@H](Cl)[C@H]2c3cc4ccccc4nc3Oc3ccccc3N12	> 100		> 100	> 100	> 100	42.5	> 100	> 100	> 100	> 100	> 100		> 100	> 100	> 100			
CN(C)CCCNC(=O)c1cc(NC(=O)c2cc(NC(=O)[C@@H]3C[C@H]3C(=O)Nc3cc(C(=O)Nc4cc(C(=O)NCCCN(C)C)n(C)c4)n(C)c3)cn2C)cn1C	> 100		> 100	> 100			> 100	> 100	> 100	> 100	> 100		> 100	> 100	> 100	> 100	> 100	
COc1ccc2nc3n(c2c1)C(c1c(Cl)cccc1Cl)SC3 (configuration not stated)			> 100	65.9	> 100	> 100	> 100	> 100	> 100	> 100	> 100	> 100	> 100	> 100	> 100	> 100	> 100	
Cc1cc(C)n(C(=O)CSc2nnc(SCC(=O)n3nc(C)cc3C)s2)n1		89.3	> 100	> 100	> 100	> 100	> 100	> 100	> 100		> 100	> 100	> 100	> 100	> 100	> 100	> 100	
CC(O[Si](c1ccccc1)(c1ccccc1)C(C)(C)C)[C@H](NC(=O)OC(C)(C)C)C(=O)O (some centres not stated)	> 100	> 100	46.1	> 100	> 100		> 100	> 100	> 100		> 100	97.1	> 100	> 100	> 100	56.8	> 100	
COc1ccc(/C=C2/CCS(=O)(=O)c3ccc(C)cc3C2=O)cc1OC		73.2	49.6	66.9	37.5	22.7	27.3	> 100	27.4	60.9	> 100	49.5	33.3	25.8	36	58.9	> 100	
O=C(O)CC1CC=C[C@H]2c3cc4c(cc3C(=O)NC12)OCO4 (some centres not stated)	> 75		> 75		> 75	> 75	> 75	> 75	> 75		> 75		> 75	> 75	> 75			
COc1cc(C23OCC(Cc4cc5c(cc42)OCO5)C3CO)cc(OC)c1OC (configuration not stated)	> 100	> 100	> 100	> 100	> 100	> 100	> 100	> 100	> 100	> 100	> 100		> 100	> 100	> 22.5	> 100	> 100	4.27
CC(=O)ON(C(C)=O)C1C(COC(c2ccccc2)(c2ccccc2)c2ccccc2)OC2OC3(CCCC3)OC21 (configuration not stated)	> 100		> 31	> 100	> 100	> 100	> 100	> 100	> 100	> 100	> 100		> 100	> 100	> 100			
CC(=N)N(C)O	> 100		> 100	> 100	> 100	> 100	> 100	> 100	> 100	> 100	> 100			> 100	> 100			
CC(C)(C)NC(=O)C12C3C4C1C1C2C3C41C(=O)NC(C)(C)C (configuration not stated)		> 100	> 100	> 100	> 100	> 100	> 100	> 100	> 100	> 100	> 100	> 100	> 100	> 100	> 100	> 100	> 100	
Nc1c(N2CCCCC2)c(=O)nc2[nH]/c(=C\c3ccccc3)c(=O)n12	> 100	> 100	> 100	> 100	> 100		> 100		> 100		> 100	> 100	> 100	> 100	> 100		> 100	
CCOC(=O)c1[nH]c2nc(SC)nc(Nc3ccccc3Cl)c2c1N	67	61.8	30.5	60.3	56.3	84.7	60.5	41.3	46.1	> 100	> 100	> 100	44.5	41.1	51.5	37.1		
CC1=NN(C(=O)c2ccc(Cl)cc2)C(=O)/C1=C/c1ccco1	> 100		> 100	> 100	> 100	> 100	> 100	> 100	> 100	> 100	> 100		> 100	> 100	> 100			
CC(=O)N=C1N(/C=C2\C(=O)Oc3ccccc3C2=O)C(=O)/C(=C/c2ccccc2Cl)N1C	> 100	34.9	> 100	> 100		> 100	> 100	> 100	> 100	> 100	> 100	> 100	> 100	> 100	> 100	> 100	> 100	
O=[N+]([O-])c1sc2ccc(Cl)cc2c1Nc1ccc(Cl)cc1	> 100	> 100	> 100	> 100	> 100	> 100	> 100	> 100	> 100	> 100	> 100		> 100	> 100	> 100	> 100	> 100	
O=S(=O)(OI(O)CC(F)(F)F)C(F)(F)F			> 100	> 100	> 100	> 100	> 100	> 100	> 100	> 100	> 100			> 100	> 100	> 100	> 100	
N#Cc1c(N)c(C#N)c2c(c1-c1ccc(Cl)cc1)COc1ccccc1-2	58.1		25	30	36.1	> 100	39.9	33.5	38.1	60.1	> 100	66.4	30.6	> 100		42.6	> 100	
COC(=O)C1C(C(=O)OC)C1(Br)CBr (configuration not stated)		> 100	21	> 100	> 100	> 100	> 100	> 100	61.8	> 100	> 100	> 100	> 100	> 100	> 100	> 100	> 100	
CC(=O)Oc1c2oc3cc(O)c(O)cc3c2c(OC(C)=O)c2oc3cc(O)c(O)cc3c12	> 100	36.4	> 100	62.3	32.9	40.2	7.38	35.9	74.8	42.1	> 100	> 100	94.2	32.7	30.3	56.9		
COc1ccc(Nc2nc3ccccc3nc2C(=O)O)cc1OC	> 100	> 100	> 100		> 100	> 100	> 100	> 100	> 100		> 100	> 100	> 100	> 100	> 100	> 100	> 100	
O=C(Nc1nc(C23CC4CC(CC(C4)C2)C3)cs1)c1cc2c(ccc3ccccc32)oc1=O	> 100	> 100	> 100	> 100	> 100		> 100	> 100	> 100			> 100	> 100	> 100	> 100	> 100	> 100	
COC(=O)C(=O)C(C(=O)C(=O)Nc1ccc(C)cc1)c1nc2ccc(C(=O)c3ccccc3)cc2[nH]c1=O (configuration not stated)	> 100	> 100		> 100	> 100	> 100	> 100	> 100	> 100	> 100		> 100	> 100	> 100	> 100	> 100		
COc1ccc(N2C(=O)/C(=C\c3cccc(Oc4ccccc4)c3)SC2c2ccccc2)cc1 (configuration not stated)	> 100	> 100	74.1	> 100	> 100	> 100	> 100	> 100	> 100	> 100	> 100	> 100	> 100	> 100	> 100		> 100	
O=C1NC(S(=O)(=O)O)=NNC12c1ccccc1-c1ccccc12	> 10	> 10	> 10	> 10	> 10	> 10	> 10	> 10	> 10		> 10	> 10	> 10	> 10	> 10	> 10	> 10	
CC(=O)O[C@@H]1O[Si](C(C)(C)C)(C(C)(C)C)[C@H](C)[C@H]1C	90.1		65.7	> 100	> 100	> 100	> 100	> 100	> 100	> 100	> 100	> 100	> 100		> 100	> 100	83	
